Laboratory results from patent US12447159B2 (AELIS FARMA, priority 2018, dated 2025).
Like-named read-outs stand apart in the source and are kept apart here.

Key:
CYP 2C9 = CYP 2C9 (Homo sapiens, UniProt P11712); assay: CYP inhibition in human liver microsomes; conditions: 10 μM
Source text: Reaction was initiated by adding NADPH-generating compounds and after stopping of reaction and samples treatment; HPLC-UV/VIS and HPLC-MS/MS detection were used for detection of peak areas corresponding to the metabolite of each substrate.

male Wistar rats = assay: Irwin test and body temperature in rats (GLP); format: in vivo; conditions: 2, 9 and 36 mg/kg, single oral
Experimental: The study involved 4 groups of 6 male Wistar rats weighing between 154.0 and 185.9 g.
On study day, animals were firstly scored by the Irwin standardized observation battery and the body temperature was measured. […] Then the Irwin scores as well as measurement of body temperature were performed again at 1, 3, 6, 8 and 24 hours after the administration.

[1] = tested on: testosterone, DHEA and allopregnanolone; assay: Conversion in downstream steroids, dogs (GC/MS-MS); format: in vivo; conditions: male and female dogs; acute or repeated (28 days) 2, 9 and 36 mg/kg
Experimental: In all these studies plasma concentrations of steroids were measured by gas chromatography-tandem mass spectrometry (GC/MS-MS).

[2] = Distribution in the brain of rats; format: in vivo; conditions: rat, oral, 1.6 mg/kg, per os
Experimental: Distribution of 3pMBP in the brain was studied in mice and rats. In dogs, 3pMBP was also administered intravenously after solubilisation in cyclodextrine.

OAT1 = OAT1 (Homo sapiens, UniProt Q4U2R8); assay: Cellular transporter inhibition, CHO cells (fluorometry); conditions: 10 μM
Experimental: (§1) Chinese Hamster Ovary (CHO) were used for all transporters except for P-gp that was studied in Madin-Darby Canine Kidney (MDR1-MDCKII) cells. The inhibition of the activity of each transporter is evaluated by measuring changes in the transport of their specific substrates by fluorometry.

[3] = target: T1, human CB1 (hCB1) receptor (Homo sapiens, UniProt P21554); assay: THC-induced increase in MAPK phosphorylation, HEK-293 cells transiently transfected with hCB1 (western blot, P-MAPK/MAPK); format: cell-based; conditions: THC 10 μM, 5 min; HEK-293 transiently expressing the hCB1
T1 construct: expressed in transfected cells; host or cells: HEK-293
Experimental: The difference in the concentrations of THC used in the two experiments is related to the different efficiency of transfection of hCB1 cDNA plasmid, which is stable in Experiment 1 and transient in Experiment 2.
MAPK phosphorylation (P-Erk1/2MAPK proteins) was measured by western blot. In experiment 1 the mitochondrial marker CoxIV and in experiment 2 the un-phosphorylated MAPK proteins were used as loading controls. The P-MAPK/CoxIV and P-MAPK/MAPK ratios were calculated and the data expressed as % of vehicle-treated cells.

[4] = tested on: THC-induced object recognition impairment; assay: THC-induced impairment of long-term memory (object recognition test); conditions: per os 3 h before THC 6 mg/kg ip; mice
Source text: Ten minutes before THC injection, mice were allowed to explore 2 identical objects in an “L”-shaped maze. The day after, one object was replaced by a novel one. […] The comparison of the time spent exploring the familiar and the novel objects is used as an index of discrimination between familiarity and novelty. Therefore, this parameter is used to evaluate object recognition performances.

[5] = tested on: diet-induced obese (DIO) mouse model; assay: Repeated treatment: food intake and body weight in diet-induced obese (DIO) mice; format: in vivo
Experimental: Male C57BL/6J mice were fed ad libitum with a high-fat diet (HFD) for 8 weeks before the start of the pharmacological treatments. During pharmacological treatments, the HFD was maintained and food intake and body weight were measured daily. The food consumed was calculated by subtracting the food left in the hoppers from the initial pre-weighted amount. […] 3pMBP and rimonabant were administered by oral gavage once a day, two hours before the start of the dark phase of the light/dark cycle.

[6] = Pharmacokinetics in plasma of dogs (LC/MS-MS); format: in vivo; conditions: for T1/2: manual linear regression on the last three points
P-gp = P-gp (Homo sapiens, UniProt P08183); assay: Cellular transporter inhibition, MDR1-MDCKII cells (fluorometry); conditions: 10 μM
Experimental: as §1

[7] = tested on: diet-induced obese (DIO) mouse model; assay: Repeated treatment: food intake and body weight in diet-induced obese (DIO) mice; format: in vivo; conditions: vs vehicle; Rimo 10 mg/kg ip; 3pMBP 0.005-15 mg/kg per os
[8] = tested on: human chromosome aberration; assay: Human Chromosome Aberration test +/- metabolic activation (GLP); format: cell-based; conditions: highest concentration tested between 74 and 100 μM
Source text: […].

conscious rats = assay: Respiration in the unrestrained conscious rat (whole body plethysmography, GLP); conditions: 2, 9 and 36 mg/kg, single oral
Experimental: The day prior to the study, animals were only allowed to drink water. On the study day, animals were placed in the plethysmograph and measurements started immediately afterwards. The whole body plethysmography method measure in a closed chamber variations in air flow due to thoracic cage movements during respiration and enables the measurement of respiratory parameters in the conscious animal, totally free to move about. […] Respiration was recorded for a total period of 6 hours following the dosing. Respiratory parameters were determined from analysis of respiratory cycles.

[9] = Metabolic stability in human liver microsomes (HLM); format: in vitro ADME; conditions: human LM, NADPH
Experimental: The investigation was performed on liver microsomes (LM) coming from mouse (MLM), rat (RLM), dog (DLM) and human (HLM).
3pMBP was incubated with liver microsome pools supplemented with NADPH as cofactor. Samples were taken at 5 different times (0, 10, 20, 30 and 60 minutes) and samples were monitored for parent compound disappearance in MRM mode using LC/MS-MS. The Intrinsic Clearance and half-life have been determined. Verapamil was used as reference compound.

T1 sequence (P21554 whole entry): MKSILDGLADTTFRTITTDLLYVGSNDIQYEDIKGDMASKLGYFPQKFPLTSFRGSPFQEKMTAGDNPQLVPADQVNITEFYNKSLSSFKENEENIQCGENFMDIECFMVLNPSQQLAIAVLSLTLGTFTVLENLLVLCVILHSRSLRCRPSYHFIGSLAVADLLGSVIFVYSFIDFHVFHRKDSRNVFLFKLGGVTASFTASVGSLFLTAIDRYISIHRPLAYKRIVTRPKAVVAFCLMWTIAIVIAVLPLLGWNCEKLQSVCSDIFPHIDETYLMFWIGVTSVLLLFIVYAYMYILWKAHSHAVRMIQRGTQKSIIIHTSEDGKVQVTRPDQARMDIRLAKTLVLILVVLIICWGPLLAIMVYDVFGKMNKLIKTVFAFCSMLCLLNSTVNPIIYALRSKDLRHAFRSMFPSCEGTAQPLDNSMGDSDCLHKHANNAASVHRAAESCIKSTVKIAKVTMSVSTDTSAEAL
Chain of OAT1 (Q4U2R8 whole entry): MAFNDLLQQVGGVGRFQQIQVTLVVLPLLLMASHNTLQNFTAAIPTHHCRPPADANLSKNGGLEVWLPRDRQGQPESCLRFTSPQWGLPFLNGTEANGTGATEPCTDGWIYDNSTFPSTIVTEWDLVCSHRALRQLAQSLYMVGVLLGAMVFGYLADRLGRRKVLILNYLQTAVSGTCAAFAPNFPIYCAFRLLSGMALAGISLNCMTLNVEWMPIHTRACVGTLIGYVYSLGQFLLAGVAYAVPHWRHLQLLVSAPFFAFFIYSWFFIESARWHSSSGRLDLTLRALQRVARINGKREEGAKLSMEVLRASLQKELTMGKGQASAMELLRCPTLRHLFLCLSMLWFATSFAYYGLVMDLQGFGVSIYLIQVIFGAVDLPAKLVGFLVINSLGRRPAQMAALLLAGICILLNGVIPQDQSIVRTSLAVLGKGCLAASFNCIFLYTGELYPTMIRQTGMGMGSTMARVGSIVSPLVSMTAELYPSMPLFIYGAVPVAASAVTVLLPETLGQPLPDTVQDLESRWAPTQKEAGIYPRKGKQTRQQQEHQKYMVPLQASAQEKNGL
Chain of CYP 2C9 (P11712 whole entry): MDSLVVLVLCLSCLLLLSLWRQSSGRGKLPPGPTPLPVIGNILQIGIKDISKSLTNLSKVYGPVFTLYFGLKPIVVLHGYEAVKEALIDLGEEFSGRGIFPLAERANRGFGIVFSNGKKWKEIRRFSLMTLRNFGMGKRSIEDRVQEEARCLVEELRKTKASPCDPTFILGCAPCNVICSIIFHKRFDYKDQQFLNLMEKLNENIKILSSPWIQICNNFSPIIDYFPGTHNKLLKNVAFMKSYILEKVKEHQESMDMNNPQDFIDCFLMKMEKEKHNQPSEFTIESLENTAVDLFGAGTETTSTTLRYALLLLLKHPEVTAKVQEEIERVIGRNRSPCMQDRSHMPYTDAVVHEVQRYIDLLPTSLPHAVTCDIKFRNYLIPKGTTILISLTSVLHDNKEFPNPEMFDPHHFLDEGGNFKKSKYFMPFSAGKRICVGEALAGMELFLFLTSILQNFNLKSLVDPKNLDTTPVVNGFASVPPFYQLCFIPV
Chain of P-gp (P08183 whole entry): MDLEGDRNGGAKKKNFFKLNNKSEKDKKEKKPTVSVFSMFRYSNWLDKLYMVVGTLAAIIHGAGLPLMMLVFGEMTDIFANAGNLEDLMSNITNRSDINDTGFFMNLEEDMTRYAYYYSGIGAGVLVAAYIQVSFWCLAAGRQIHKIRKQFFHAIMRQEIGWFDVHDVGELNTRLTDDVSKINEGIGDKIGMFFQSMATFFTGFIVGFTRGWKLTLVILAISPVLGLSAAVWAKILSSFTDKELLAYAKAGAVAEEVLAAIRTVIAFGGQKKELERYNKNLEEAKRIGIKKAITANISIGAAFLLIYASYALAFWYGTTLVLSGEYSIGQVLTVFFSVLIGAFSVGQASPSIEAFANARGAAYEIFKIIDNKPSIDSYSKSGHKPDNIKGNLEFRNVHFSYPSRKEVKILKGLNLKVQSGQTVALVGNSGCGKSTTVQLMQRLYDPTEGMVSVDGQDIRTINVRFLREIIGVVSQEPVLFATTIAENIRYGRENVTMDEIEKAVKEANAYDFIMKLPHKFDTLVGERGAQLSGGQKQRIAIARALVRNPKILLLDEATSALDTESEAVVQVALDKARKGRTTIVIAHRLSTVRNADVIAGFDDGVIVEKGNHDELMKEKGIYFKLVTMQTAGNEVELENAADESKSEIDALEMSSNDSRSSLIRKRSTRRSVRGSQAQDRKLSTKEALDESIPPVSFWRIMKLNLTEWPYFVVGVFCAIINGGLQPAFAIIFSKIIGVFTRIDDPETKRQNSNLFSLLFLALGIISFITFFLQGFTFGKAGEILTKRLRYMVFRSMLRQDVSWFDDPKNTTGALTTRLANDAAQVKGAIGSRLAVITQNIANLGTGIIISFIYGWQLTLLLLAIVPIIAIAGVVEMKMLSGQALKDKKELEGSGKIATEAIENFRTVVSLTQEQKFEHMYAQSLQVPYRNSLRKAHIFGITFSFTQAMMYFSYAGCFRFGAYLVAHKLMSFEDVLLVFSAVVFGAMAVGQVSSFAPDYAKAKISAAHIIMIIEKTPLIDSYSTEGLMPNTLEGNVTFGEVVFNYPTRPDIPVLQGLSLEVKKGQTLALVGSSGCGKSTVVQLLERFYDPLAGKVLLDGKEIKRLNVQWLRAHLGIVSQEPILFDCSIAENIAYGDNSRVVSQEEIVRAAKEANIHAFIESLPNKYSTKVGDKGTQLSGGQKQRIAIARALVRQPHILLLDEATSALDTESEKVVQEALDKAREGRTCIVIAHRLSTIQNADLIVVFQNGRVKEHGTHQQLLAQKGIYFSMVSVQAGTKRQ

COc1ccc(CO[C@H]2CC[C@@]3(C)C(=CC[C@H]4[C@@H]5CC[C@H](C(C)=O)[C@@]5(C)CC[C@@H]43)C2)cc1 [3pMBP, 3β-(4-methoxybenzyloxy)pregn-5-en-20-one]
Inhibition of CYP 2C9 activity (CYP 2C9): no significant inhibition
Behavior (Irwin test) and body temperature (male Wistar rats): did not modify
Plasma concentrations of testosterone, DHEA and allopregnanolone [1]: no effect
Tmax [2]: 7 h
Activity of OAT1 (OAT1): did not modify the activity
% inhibition [3]: 100%
ID100 [3]: 100 nM
% inhibition [4]: 100%
ID50 [4]: <5 µg/kg
Inhibition of food-intake and body weight (repeated administration): Effect (3pMBP) ([5]; male mice, highest dose tested 15 mg/kg): at none of the dose tested did modify food intake or body weight and No
Food intake in obese mice ([5]; vs vehicle, Rimo 10 mg/kg ip, 3pMBP 0.005-15 mg/kg per os): but not 3pMBP (0.005, 0.015, 0.05, 5 and 15 mg/kg; per os), decreases food intake
bioavailability [6]: 68%
bioavailability ([6]; both sexes, dog, plasma, oral, 0.7 mg/kg, read-out: bioavailability): ~68%
Tmax ([6]; both sexes, dog, po, per os, 0.7 mg/kg, plasma, read-out: Tmax): ~3 h
AUClast ([6]; iv, 0.7 mg/kg, plasma): 2192 ng·h/mL
Cmax ([6]; iv, 0.7 mg/kg, plasma): 505 ng/mL
Tmax ([6]; iv, 0.7 mg/kg, plasma): 0.125 h
T1/2 ([6]; iv, 0.7 mg/kg, plasma): 35.9 h
AUClast ([6]; per os, 0.7 mg/kg, plasma): 1452.5 ng·h/mL
Cmax ([6]; per os, 0.7 mg/kg, plasma): 137.7 ng/mL
Tmax ([6]; per os, 0.7 mg/kg, plasma): 2.67 h
T1/2 ([6]; per os, 0.7 mg/kg, plasma): 28.0 h
Activity of P-gp (P-gp): did not modify the activity
Body weight in obese mice [7]: but not 3pMBP (0.005, 0.015, 0.05, 5 and 15 mg/kg; per os), decreases body weight
Genotoxicity [8]: did not show any cytotoxicity, genotoxicity and mutagenesis
Respiration (conscious rats): did not modify
half-life [9]: 6.83 h
microsomal CLint ([9]; read-out: intrinsic clearance): 3.38 µL/min/mg
